In US10407467B2, “Polymyxin derivatives and their use in combination therapy together with different antibiotics” (priority 2013, dated 2019):
Structures can show the parent of a compound that is named as a salt. Where two headings read alike, the source gives them in different places. Numbered stars: 1 amine (or outer) side, 2 acyl side, 3 side chain; on linkers, the order of the positions; unused ones are H or OH. Bridge positions count the residues as written; N and C are the ends. Square brackets hold non-standard residues; d marks the D form. Peptide text beside a SMILES is read from it. * marks the point of attachment. ξ: configuration not given here. X25 = CC(O)[C@@H](C(=O)[*:2])N(CCC1(N)CCCCC1)[*:1]; Acetyl(3-pyridyl) = O=C(Cc1cccnc1)*; Hyp = O=C(O)[C@@H]1C[C@@H](O)CN1; X24 = O=C(CCN1CCS(=O)(=O)CC1)*; Thr(3ξ) = CC(O)[C@H](N)C(=O)O; Chg = N[C@H](C(=O)O)C1CCCCC1; 4Abz = Nc1ccc(C(=O)O)cc1; Dab = NCC[C@H](N)C(=O)O; Bz = O=C(c1ccccc1)*

Assays:
Assay type in all cases: cell-based
[1] = tested on: Klebsiella pneumoniae; assay: MIC, compound in combination with a second agent (broth microdilution); details: 1:1 (wt:wt) combination with Rifampicin
Description: (§1) To evaluate the potency and spectrum of the compounds both alone and in combination with another agent, susceptibility testing was performed against up to four strains of each of the four Gram negative pathogens, Escherichia coli, Pseudomonas aeruginosa, Klebsiella pneumoniae and Acinetobacter baumannii.
(§2) Ratios of components in a combination, such as 1:1, refers to a weight to weight ratio. The minimum inhibitory concentration (MIC) refers to the total drug concentration (e.g. test compound plus second agent, such as Rifampicin).
(§3) The inoculum was prepared by making a direct suspension of isolated colonies (selected from an 18-24 hour Mueller-Hinton agar plate) adjusted to the 0.5 McFarland standard.
(§4) The assays were performed in duplicate.
(§5) In cases where the duplicate values varied by less than 2-fold, the lower of the two values is reported. If a variation of greater than 2-fold was observed, the assay was considered non-valid. Several of the compounds were subjected to multiple tests, and where this is the case, the MIC reflects the modal value obtained.
(§6) The minimum inhibitory concentration refers to the total drug concentration (e.g. test compound plus Rifampicin). The compounds are used at equal mass within the combination. The weight refers to the mass of compound as used, for example the Example Compounds are used in their TFA or sulphate salt forms.
(§7) MICs refer to the total drug concentration. Thus, where a 1:1 combination is used, this is the amount of the test compound plus the second agent. For comparison, the MIC values for the second agent alone are also given.

[2] = tested on: Pseudomonas aeruginosa; assay: as above; details: 1:1 (wt:wt) combination with Rifampicin
Description: as §1, §2, §3, §4, §5, §6, §7

[3] = tested on: Escherichia coli; assay: MIC, sole activity (no second agent); details: for MIC: Escherichia coli
Description: as §1, §3, §4, §5
(§8) MICs were determined as described herein, except that a different supplier of Cation-adjusted MHB was used. […] Values are reported relative to Polymyxin B.

[4] = tested on: Klebsiella pneumoniae; assay: MIC, sole activity (no second agent); details: for MIC: Klebsiella pneumoniae
Description: as §1, §3, §4, §5, §8

[5] = tested on: Pseudomonas aeruginosa; assay: MIC, sole activity (no second agent); details: for MIC: Pseudomonas aeruginosa
Description: as §1, §3, §4, §5, §8

[6] = MIC = total drug concentration, strain ATCC-BAA-2146
[7] = MIC = total drug concentration, strain CCUG-59348
[8] = MIC = total drug concentration, strain NCTC 13438
[9] = MIC = total drug concentration, strain CCUG 59626
[10] = MIC is total drug concentration
[11] = NCTC9001, read-out: MIC E. coli NCTC9001
[12] = CCUG59348, read-out: MIC K. pneumoniae CCUG 59348
[13] = NCTC13442, read-out: MIC K. pneumoniae NCTC 13442

CCCCCCC(O)C(=O)N[C@H](C(=O)N[C@@H](CCN)C(=O)N[C@H]1CCNC(=O)[C@H](C(C)O)NC(=O)[C@H](CCN)NC(=O)[C@H](CCN)NC(=O)[C@H](CC(C)C)NC(=O)[C@@H](CC(C)C)NC(=O)[C@H](CCN)NC1=O)C(C)O (mixture of isomers) [Example 19, 2-(RS)-2- Hydroxyoctanoyl polymyxin E nonapeptide]
MIC K. pneumoniae ATCC-BAA-2146 [1, 6]: 2 micrograms/mL
MIC K. pneumoniae CCUG-59348 [1, 7]: 2 micrograms/mL
MIC K. pneumoniae NCTC 13438 [1, 8]: 0.5 micrograms/mL
MIC P. aeruginosa CCUG 59626 [2, 9]: 1 micrograms/mL
MIC E. coli ATCC25922 ([3]; in the absence of Rifampicin, strain ATCC25922): 8 micrograms/mL
MIC K. pneumoniae ATCC 4352 ([4]; in the absence of Rifampicin, strain ATCC 4352): 8 micrograms/mL
MIC P. aeruginosa ATCC 27853 ([5]; in the absence of Rifampicin, strain ATCC27853): 4 micrograms/mL

CC(C)C[C@@H]1NC(=O)[C@@H](Cc2ccccc2)NC(=O)[C@H](CCN)NC(=O)[C@@H](NC(=O)[C@H](CCN)NC(=O)[C@@H](NC(=O)c2ccc(N)cc2)C(C)O)CCNC(=O)[C@H](C(C)O)NC(=O)[C@H](CCN)NC(=O)[C@H](CCN)NC1=O (stereo partly drawn) [Example 5, 4-Aminobenzoyl polymyxin B nonapeptide] (H-[4Abz][Thr(3ξ)][Dab][Dab][Dab][dF]L[Dab][Dab][Thr(3ξ)]; lactam 4-C)
MIC K. pneumoniae ATCC-BAA-2146 [1, 6]: 1 micrograms/mL
MIC K. pneumoniae CCUG-59348 [1, 7]: 2 micrograms/mL
MIC K. pneumoniae NCTC 13438 [1, 8]: 1 micrograms/mL
MIC K. pneumoniae ATCC-BAA-2146 [1, 10]: 1 micrograms/mL
MIC K. pneumoniae CCUG-59348 [1, 10]: 2 micrograms/mL
MIC K. pneumoniae NCTC 13438 [1, 10]: 1 micrograms/mL
MIC P. aeruginosa CCUG 59626 [2, 9]: 0.25 micrograms/mL
MIC P. aeruginosa CCUG 59626 [2, 10]: 0.25 micrograms/mL

CC(C)C[C@@H]1NC(=O)[C@@H](Cc2ccccc2)NC(=O)[C@H](CCN)NC(=O)[C@@H](NC(=O)[C@H](CCN)NC(=O)[C@@H](NC(=O)CCN2CCS(=O)(=O)CC2)C(C)O)CCNC(=O)[C@H](C(C)O)NC(=O)[C@H](CCN)NC(=O)[C@H](CCN)NC1=O (stereo partly drawn) [Example 12, 3-(1,1-dioxo-thiomorpholine-4-yl)propanoyl Polymyxin B nonapeptide] (X24-[Thr(3ξ)][Dab][Dab][Dab][dF]L[Dab][Dab][Thr(3ξ)]; lactam 3-C)
MIC K. pneumoniae ATCC-BAA-2146 [1, 6]: 4 micrograms/mL
MIC K. pneumoniae CCUG-59348 [1, 7]: 16 micrograms/mL
MIC K. pneumoniae NCTC 13438 [1, 8]: 4 micrograms/mL
MIC P. aeruginosa CCUG 59626 [2, 9]: 0.5 micrograms/mL

CC(C)C[C@@H]1NC(=O)[C@@H](Cc2ccccc2)NC(=O)[C@H](CCN)NC(=O)[C@@H](NC(=O)[C@H](CCN)NC(=O)[C@@H](NC(=O)[C@@H]2C[C@@H](O)CN2)C(C)O)CCNC(=O)[C@H](C(C)O)NC(=O)[C@H](CCN)NC(=O)[C@H](CCN)NC1=O (stereo partly drawn) [Example 35, (2S,4R)-4-Hydroxy-2-pyrrolidine carbonyl polymyxin B nonapeptide, trifluoroacetate salt] (H-[Hyp][Thr(3ξ)][Dab][Dab][Dab][dF]L[Dab][Dab][Thr(3ξ)]; lactam 4-C)
MIC K. pneumoniae ATCC-BAA-2146 [1, 6]: 4 micrograms/mL
MIC K. pneumoniae CCUG-59348 [1, 7]: 16 micrograms/mL
MIC K. pneumoniae NCTC 13438 [1, 8]: 4 micrograms/mL
MIC P. aeruginosa CCUG 59626 [2, 9]: 0.5 micrograms/mL

CC(C)C[C@@H]1NC(=O)[C@@H](Cc2ccccc2)NC(=O)[C@H](CCN)NC(=O)[C@@H](NC(=O)[C@H](CCN)NC(=O)[C@@H](NC(=O)[C@@H](N)C2CCCCC2)C(C)O)CCNC(=O)[C@H](C(C)O)NC(=O)[C@H](CCN)NC(=O)[C@H](CCN)NC1=O (stereo partly drawn) [Example 40, 2-(S)-(2-amino-2-cyclohexyl)ethanoyl polymyxin B nonapeptide, trifluoroacetate salt] (H-[Chg][Thr(3ξ)][Dab][Dab][Dab][dF]L[Dab][Dab][Thr(3ξ)]; lactam 4-C)
MIC K. pneumoniae ATCC-BAA-2146 [1, 6]: 2 micrograms/mL
MIC K. pneumoniae CCUG-59348 [1, 7]: 8 micrograms/mL
MIC P. aeruginosa CCUG 59626 [2, 9]: 0.5 micrograms/mL

CC(C)C[C@@H]1NC(=O)[C@@H](Cc2ccccc2)NC(=O)[C@H](CCN)NC(=O)[C@@H](NC(=O)[C@H](CCN)NC(=O)[C@@H](NCCC2(N)CCCCC2)C(C)O)CCNC(=O)[C@H](C(C)O)NC(=O)[C@H](CCN)NC(=O)[C@H](CCN)NC1=O (stereo partly drawn) [Example 49, N-[2-(1-aminocyclohexyl)ethyl] Polymyxin B nonapeptide] (H-[X25][Dab][Dab][Dab][dF]L[Dab][Dab][Thr(3ξ)]; lactam 3-C)
MIC K. pneumoniae ATCC-BAA-2146 [1, 6]: 2 micrograms/mL
MIC K. pneumoniae CCUG-59348 [1, 7]: 8 micrograms/mL
MIC P. aeruginosa CCUG 59626 [2, 9]: 0.25 micrograms/mL

CC(C)C[C@@H]1NC(=O)[C@@H](Cc2ccccc2)NC(=O)[C@H](CCN)NC(=O)[C@@H](NC(=O)[C@H](CCN)NC(=O)[C@@H](NC(=O)c2ccccc2)C(C)O)CCNC(=O)[C@H](C(C)O)NC(=O)[C@H](CCN)NC(=O)[C@H](CCN)NC1=O (stereo partly drawn) [Example C3, Benzoyl polymyxin B nonapeptide, sulphate salt, reference compound] (Bz-[Thr(3ξ)][Dab][Dab][Dab][dF]L[Dab][Dab][Thr(3ξ)]; lactam 3-C)
MIC K. pneumoniae ATCC-BAA-2146 [1, 10]: 2 micrograms/mL
MIC K. pneumoniae CCUG-59348 [1, 10]: 8 micrograms/mL
MIC K. pneumoniae NCTC 13438 [1, 10]: 2 micrograms/mL
MIC P. aeruginosa CCUG 59626 [2, 10]: 1 micrograms/mL

CC(C)C[C@@H]1NC(=O)[C@@H](Cc2ccccc2)NC(=O)[C@H](CCN)NC(=O)[C@@H](NC(=O)[C@H](CCN)NC(=O)[C@@H](NC(=O)Cc2cccnc2)C(C)O)CCNC(=O)[C@H](C(C)O)NC(=O)[C@H](CCN)NC(=O)[C@H](CCN)NC1=O (stereo partly drawn) [Example C5, 3-pyridyl ethanoyl polymyxin B nonapeptide, reference compound] ({Acetyl(3-pyridyl)}-[Thr(3ξ)][Dab][Dab][Dab][dF]L[Dab][Dab][Thr(3ξ)]; lactam 3-C)
MIC K. pneumoniae ATCC-BAA-2146 [1, 10]: 1 micrograms/mL
MIC K. pneumoniae CCUG-59348 [1, 10]: 4 micrograms/mL
MIC K. pneumoniae NCTC 13438 [1, 10]: 2 micrograms/mL
MIC P. aeruginosa CCUG 59626 [2, 10]: 0.25 micrograms/mL

CC(=O)O[C@H]1C[C@@]2(C)[C@@H](C[C@@H](O)[C@H]3[C@@]4(C)CC[C@@H](O)[C@@H](C)[C@@H]4CC[C@@]32C)/C1=C(\CCC=C(C)C)C(=O)O [Fusidic acid, reference compound]
MIC ([3]; Table 7I, E. coli ATCC25922, second agent none, read-out: MIC E. coli (ATCC25922)): > 32 µg/mL
MIC ([4]; Table 7I, K. pneumoniae ATCC4352, second agent none, read-out: MIC K. pneumoniae (ATCC4352)): 16 µg/mL

C[C@@H](O)[C@H]1C(=O)N2C(C(=O)O)=C(S[C@@H]3CN[C@H](C(=O)N(C)C)C3)[C@H](C)[C@H]12 [Meropenem, reference compound]
MIC ([3]; E. coli NCTC9001, second agent none, read-out: MIC E. coli (NCTC9001)): 0.125 µg/mL
MIC ([4]; ATCCBAA1706, K. pneumoniae ATCC BAA-1706, second agent none, read-out: MIC K. pneumoniae ATCC BAA-1706): 16 µg/mL
MIC ([4]; CCUG59348, K. pneumoniae CCUG 59348, second agent none, read-out: MIC K. pneumoniae CCUG 59348): > 32 µg/mL
MIC ([4]; NCTC13442, K. pneumoniae NCTC 13442, second agent none, read-out: MIC K. pneumoniae NCTC 13442): 16 µg/mL
MIC ([5]; CCUG59626, P. aeruginosa CCUG 59626, second agent none, read-out: MIC P. aeruginosa CCUG 59626): 16 µg/mL

Cc1onc(-c2ccccc2)c1C(=O)N[C@@H]1C(=O)N2[C@@H]1SC(C)(C)[C@@H]2C(=O)O [Oxacillin, reference compound]
MIC ([3]; Table 7G, E. coli ATCC25922, second agent none, read-out: MIC E. coli (ATCC25922)): > 32 µg/mL
MIC ([4]; Table 7G, K. pneumoniae ATCC4352, second agent none, read-out: MIC K. pneumoniae (ATCC4352)): 16 µg/mL

CN(C)c1cc(NC(=O)CNC(C)(C)C)c(O)c2c1C[C@H]1C[C@H]3[C@H](N(C)C)C(O)=C(C(N)=O)C(=O)[C@@]3(O)C(O)=C1C2=O [Tigecycline, reference compound]
MIC [3, 11]: 0.125 µg/mL
MIC [4, 12]: 2 µg/mL
MIC [4, 13]: 2 µg/mL
MIC ([5]; CCUG59626, read-out: MIC P. aeruginosa CCUG 59626): 16 µg/mL

CN[C@H](CC(C)C)C(=O)N[C@H]1C(=O)N[C@@H](CC(N)=O)C(=O)N[C@H]2C(=O)N[C@H]3C(=O)N[C@H](C(=O)N[C@H](C(=O)O)c4cc(O)cc(O)c4-c4cc3ccc4O)[C@H](O)c3ccc(c(Cl)c3)Oc3cc2cc(c3O[C@@H]2O[C@H](CO)[C@@H](O)[C@H](O)[C@H]2O[C@H]2C[C@](C)(N)[C@H](O)[C@H](C)O2)Oc2ccc(cc2Cl)[C@H]1O [Vancomycin, reference compound]
MIC [3, 11]: > 32 µg/mL
MIC [4, 12]: > 32 µg/mL
MIC ([4]; CCUG59626, read-out: MIC K. pneumoniae CCUG 59626): > 32 µg/mL
MIC [4, 13]: > 32 µg/mL
